# Results from ChEMBL document CHEMBL2086370 (J Med Chem, 2012).
# How the values were obtained:
# [1] = Lipophilicity, log D of the compound at pH 7.4 by potentiometric method; format: physicochemical; settings: buffer
# Brain [2] = experiment: Drug uptake in Harlan Sprague-Dawley rat brain at 3 ug/kg, iv after 10 mins by LC-MS/MS analysis; format: ADME, organism-based; settings: in vivo, 0.003 mg/kg
# Brain [3] = experiment: Drug uptake in Harlan Sprague-Dawley rat brain at 3 ug/kg, iv up to 60 mins by LC-MS/MS analysis; settings: in vivo, 1 h
# [4] = biological target: Kappa-type opioid receptor (Homo sapiens, UniProt P41145); experiment: biochemical
# Description: Displacement of [3H]diprenorphine from human cloned kappa type opioid receptor expressed in CHO cell membranes by scintillation counter
# [5] = biological target: Delta-type opioid receptor (Homo sapiens, UniProt P41143); experiment: biochemical
# Description: Displacement of [3H]diprenorphine from human cloned delta type opioid receptor expressed in CHO cell membranes by scintillation counter
# Mu-type opioid receptor = Mu-type opioid receptor (Homo sapiens, UniProt P35372); experiment: Displacement of [3H]diprenorphine from human cloned mu type opioid receptor expressed in CHO cell membranes by scintillation counter
# Rattus norvegicus = experiment: In vivo receptor occupancy of NOP receptor in po dosed Harlan Sprague-Dawley rat hypothalamus co-administered with unlabeled tracer compound at 3 ug/kg, iv; format: functional
# Chain of Kappa-type opioid receptor (P41145 whole entry): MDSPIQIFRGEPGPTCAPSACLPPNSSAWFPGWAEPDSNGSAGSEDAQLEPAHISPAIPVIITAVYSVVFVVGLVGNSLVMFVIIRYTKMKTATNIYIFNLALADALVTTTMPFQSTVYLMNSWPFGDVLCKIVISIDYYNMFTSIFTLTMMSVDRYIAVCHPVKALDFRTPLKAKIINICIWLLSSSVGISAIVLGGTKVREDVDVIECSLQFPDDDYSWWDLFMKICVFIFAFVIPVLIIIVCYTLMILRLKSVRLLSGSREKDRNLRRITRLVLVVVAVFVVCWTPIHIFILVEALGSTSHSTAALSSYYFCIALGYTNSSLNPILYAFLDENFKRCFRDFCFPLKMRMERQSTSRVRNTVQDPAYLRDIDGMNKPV
# Chain of Delta-type opioid receptor (P41143 whole entry): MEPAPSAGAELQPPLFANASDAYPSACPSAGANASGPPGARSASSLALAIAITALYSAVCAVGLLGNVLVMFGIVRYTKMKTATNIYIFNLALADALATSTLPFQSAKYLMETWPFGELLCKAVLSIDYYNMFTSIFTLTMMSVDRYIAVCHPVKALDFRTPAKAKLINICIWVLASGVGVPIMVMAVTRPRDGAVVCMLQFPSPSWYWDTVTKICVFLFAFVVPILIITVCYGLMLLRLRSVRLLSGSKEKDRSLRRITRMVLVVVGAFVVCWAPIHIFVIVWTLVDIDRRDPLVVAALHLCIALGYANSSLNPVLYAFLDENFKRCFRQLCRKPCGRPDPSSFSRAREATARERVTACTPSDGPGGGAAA
# Chain of Mu-type opioid receptor (P35372 whole entry): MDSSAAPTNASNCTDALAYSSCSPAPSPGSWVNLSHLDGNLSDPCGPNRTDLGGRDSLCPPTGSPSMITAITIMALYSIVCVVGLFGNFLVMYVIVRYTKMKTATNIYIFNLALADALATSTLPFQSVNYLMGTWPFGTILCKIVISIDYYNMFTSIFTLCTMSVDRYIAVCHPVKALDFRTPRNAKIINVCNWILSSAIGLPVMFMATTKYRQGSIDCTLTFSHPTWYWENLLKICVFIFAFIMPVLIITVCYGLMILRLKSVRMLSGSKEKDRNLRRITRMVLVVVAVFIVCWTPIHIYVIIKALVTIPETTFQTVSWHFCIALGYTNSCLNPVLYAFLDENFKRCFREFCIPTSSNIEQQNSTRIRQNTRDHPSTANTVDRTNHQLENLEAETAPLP
Compound,logD ([1]; read-out: logD),SUV (Brain [2]) [%],SUV (Brain [3]) [%],Ki [4] [nM],Ki [5] [nM],Ki (Mu-type opioid receptor) [nM],ED50 (Rattus norvegicus) [mg/kg],logD [1]
CC(C)N(C)C(=O)[C@@H](Cc1ccccc1F)CN1CCC2(CC1)OCCc1cc(F)sc12,4.47,143,–,–,–,–,–,–
O=C1NCN(c2ccccc2)C12CCN([C@H]1CC[C@@H]3CCCc4cccc1c43)CC2,3.46,–,–,–,–,–,–,–
CNC(=O)Cn1c(=O)n(C2CCN([C@@H]3Cc4cccc5cccc3c45)CC2)c2ccccc21,–,–,0,–,–,–,–,–
COC(=O)CN1CN(c2ccccc2)C2(CCN(Cc3cccc4ccccc34)CC2)C1=O,3.85,–,6,–,–,–,–,–
CN(C)C(=O)C(Cc1cscn1)CN1CCC2(CC1)OCc1ccc(F)cc12 (configuration not stated),2.02,–,25,> 400,> 400,> 400,–,–
CNC(=O)C(Cc1ccccc1Cl)CN1CCC2(CC1)OCCc1cc(Cl)sc12 (configuration not stated),3.77,–,87,–,–,–,–,–
NC(=O)C(Cc1ccccc1Cl)CN1CCC2(CC1)OCCc1cc(Cl)sc12 (configuration not stated),4.58,–,145,–,–,–,–,–
CN(C)C(=O)[C@@H](Cc1ccccc1F)CN1CCC2(CC1)OCCc1cc(F)sc12.O=C(O)C(O)C(O)C(=O)O,3.89,154,–,> 400,> 400,> 400,–,–
Cc1cccc2c1CC[C@H](CN1CCC(c3c(Cl)cccc3Cl)CC1)C[C@@H]2O,3.56,–,130,> 400,> 400,> 400,6.9,–
CN(C)C(=O)C(CN1CCC2(CC1)OCCc1ccsc12)Cn1cccn1 (racemic),–,–,–,> 400,> 400,> 400,–,–
CN(C)C(=O)C(Cc1ccccc1Cl)CN1CCC2(CC1)OCCc1ccsc12 (racemic),–,–,–,> 400,> 400,> 400,–,–
CN(C)C(=O)C(Cc1ccccc1F)CN1CCC2(CC1)OCCc1ccsc12 (racemic),–,–,–,> 400,> 400,> 400,–,–
CN(C)C(=O)C(Cc1c(F)cccc1F)CN1CCC2(CC1)OCCc1ccsc12 (racemic),–,–,–,> 400,> 400,> 400,–,–
"CN(C)C(=O)C(CN1CCC2(CC1)OCCc1cc(F)sc12)Cn1cccn1.O=C(O)C(O)C(O)C(=O)O (single isomer, unassigned; (+))",2.84,–,65,–,–,–,–,–
"CN(C)C(=O)C(Cc1ccccc1F)CN1CCC2(CC1)OCCc1cc(Cl)sc12.O=C(O)C(O)C(O)C(=O)O (single isomer, unassigned; (+))",4.27,–,88,> 400,> 400,> 400,–,–
"CN(C)C(=O)C(Cc1ccccc1Cl)CN1CCC2(CC1)OCCc1cc(F)sc12 (single isomer, unassigned; (+))",4.38,208,–,> 400,> 400,> 400,–,–
"CN(C)C(=O)C(CN1CCC2(CC1)OCCc1ccsc12)Cn1cccn1.O=C(O)C(O)C(O)C(=O)O (single isomer, unassigned; (-))",2.03,–,15,–,–,–,–,–
"CN(C)C(=O)C(Cc1ccccc1Cl)CN1CCC2(CC1)OCCc1cc(Cl)sc12.O=C(O)C(O)C(O)C(=O)O (single isomer, unassigned; (-))",4.61,–,75,> 400,> 400,> 400,–,–
"CNC(=O)C(Cc1ccccc1F)CN1CCC2(CC1)OCCc1cc(Cl)sc12 (single isomer, unassigned; (-))",4.19,–,46,–,–,–,–,–
"CNC(=O)C(Cc1ccccc1Cl)CN1CCC2(CC1)OCCc1cc(F)sc12 (single isomer, unassigned; (-))",3.9,154,–,–,–,–,–,–
"CN(C(=O)C(Cc1ccccc1F)CN1CCC2(CC1)OCCc1cc(F)sc12)C1CC1 (single isomer, unassigned; (-))",4.77,–,82,–,–,–,–,–
"CN(C(=O)C(Cc1ccccc1Cl)CN1CCC2(CC1)OCCc1cc(F)sc12)C1CC1 (single isomer, unassigned; (-))",5.52,–,72,–,–,–,–,–
CNC(=O)[C@@H](Cc1ccccc1F)CN1CCC2(CC1)OCCc1cc(F)sc12 [NOP-1A],–,124,–,–,–,–,–,3.5
